These results are taken from patent publication US12290513B2, “Therapeutic methods and compositions for treating movement disorders” (Vima Therapeutics, Inc., priority 2023, dated 2025).

The target of series [1] is D2S (h) (agonist radioligand) (Homo sapiens, UniProt P14416). The settings on record: at the tested concentration; negative values set to zero.
Series [2] addresses M4 (h) (antagonist radioligand) (Homo sapiens, UniProt P08173). The settings on record: at the tested concentration; negative values set to zero.
In a further series the target is T1, CYP2C8 (Homo sapiens, UniProt P10632).
T1 sequence (P10632 1-490): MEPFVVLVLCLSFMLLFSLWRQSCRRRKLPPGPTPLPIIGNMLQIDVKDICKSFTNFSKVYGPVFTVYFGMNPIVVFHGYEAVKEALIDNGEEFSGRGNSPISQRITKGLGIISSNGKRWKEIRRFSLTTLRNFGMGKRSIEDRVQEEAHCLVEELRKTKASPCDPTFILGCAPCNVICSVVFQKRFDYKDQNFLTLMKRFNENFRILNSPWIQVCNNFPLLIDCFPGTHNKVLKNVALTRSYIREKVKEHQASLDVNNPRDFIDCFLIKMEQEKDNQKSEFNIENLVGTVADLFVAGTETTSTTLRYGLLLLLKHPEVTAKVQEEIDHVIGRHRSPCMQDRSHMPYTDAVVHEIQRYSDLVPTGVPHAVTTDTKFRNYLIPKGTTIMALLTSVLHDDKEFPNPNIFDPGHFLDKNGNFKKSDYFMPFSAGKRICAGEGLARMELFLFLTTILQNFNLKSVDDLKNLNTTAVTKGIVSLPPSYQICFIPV
The experiment in a line: Incubation with recombinant CYP2C8. The settings on record: for t1/2: unit not given.

Series [3] can be described thus: Whole blood stability, human. How it is done:
Procedures for blood Stability. • A. 398 μL of blood from each species was added to an incubation plate, which was pre-warmed at 37C for 15 minutes. • B. After the pre-incubation, 2 μL of working solution (test compounds or control compounds) was spiked to 398 μL of blood to reach a final concentration of 1 μM for test compounds and 5 μM for control compounds. The final concentration of organic solvents is 0.5%. The assays were performed in duplicate. • C. The reaction samples were incubated at 37C. • D. Aliquots of 50 μL were taken from the reaction samples at 0, 15, 30, 60 and 120 minutes. The reaction was stopped by the addition of 50 μL ultrapure water and 400 μL cold acetonitrile. • E. All samples were vortexed for 10 minutes, followed by centrifugation at 3,220 g for 40 minutes to precipitate proteins. 100 μL of the supernatant was then transferred to a new plate. The supernatant was diluted with ultrapure water as needed for detection by LC-MS/MS. Sample Analysis
Samples were analyzed by LC-MS/MS to measure the concentration of the test compounds.
All calculations were carried out using Microsoft Excel and according to standard analysis methods that are known in the art.

In another series the target is CYP3A4 (Homo sapiens, UniProt P08684). As to the kind of experiment: Incubation with recombinant CYP3A4.
Another series concerns the target CYP3A5 (Homo sapiens, UniProt P20815). The experiment in a line: Incubation with recombinant CYP3A5.
A further series deals with T2, human M4 receptor (Homo sapiens, UniProt P08173).
T2 construct: expressed in transfected cells; host or cells: CHO (transient transfection)
The experiment in a line: Calcium flux assay (FLIPR), CHO cells transiently transfected with human M4. It counts as cell-based. The settings on record: agonist mode. On the procedure: All cells used in the following experiments were clonal populations of Chinese Hamster Ovary (CHO) cells stably expressing the corresponding human muscarinic receptor, except for the M4 cell line, which was a population of CHO cells transiently transfected with the human M4 receptor. […] The procedure was as follows: • 1. Cells were thawed and cultured in cell culture medium (DMEM/F12 containing 10% FBS, 1× penicillin-streptomycin and 600 μg/ml hygromycin B) at 37° C. in 5% (v/v) CO2. • 2. One day before the assays, cells were detached using TrypLE™ and counted using a cell-counter. […] 12,000 cells/well were seeded in 30 μl/well culture medium in a 384-well cell plate and incubated overnight at 37C, 5% (v/v) CO2. • 4. On the assay day, 2× dye solution was prepared following the manual of the FLIPR® Calcium 6 Assay Kit: • i. The dye was diluted with assay buffer (20 mM HEPES in 1× HBSS, PH 7.4); • ii. Probenecid was added to a final concentration of 5 mM; • iii. Cells were vortexed vigorously for 1-2 minutes. • 5. Medium was removed from the cell plate by flicking the cell plate on paper towels. • 6. 10 μl of assay buffer and 10 μl of 2× dye solution was added to each well of the cell plate. • 7. […] Plates were read for 160 sec with 1 sec intervals to obtain the data in agonist mode, then kept at 25° C. in the dark for 30 min. • 11.

Series [4] concerns the target human muscarinic receptor M1 (Homo sapiens, UniProt P11229). The experiment in a line: cell-based. On the procedure: (§1) All cells used in the following experiments were clonal populations of Chinese Hamster Ovary (CHO) cells stably expressing the corresponding human muscarinic receptor, except for the M4 cell line, which was a population of CHO cells transiently transfected with the human M4 receptor. […] The procedure was as follows: • 1. Cells were thawed and cultured in cell culture medium (DMEM/F12 containing 10% FBS, 1× penicillin-streptomycin and 600 μg/ml hygromycin B) at 37° C. in 5% (v/v) CO2. • 2. One day before the assays, cells were detached using TrypLE™ and counted using a cell-counter. […] 12,000 cells/well were seeded in 30 μl/well culture medium in a 384-well cell plate and incubated overnight at 37C, 5% (v/v) CO2. • 4. On the assay day, 2× dye solution was prepared following the manual of the FLIPR® Calcium 6 Assay Kit: • i. The dye was diluted with assay buffer (20 mM HEPES in 1× HBSS, PH 7.4); • ii. Probenecid was added to a final concentration of 5 mM; • iii. […] were vortexed vigorously for 1-2 minutes. • 5. Medium was removed from the cell plate by flicking the cell plate on paper towels. • 6. 10 μl of assay buffer and 10 μl of 2× dye solution was added to each well of the cell plate. • 7. The cell plate was shaken on a plate shaker at 600 rpm for 2 minutes and incubated at 37° C. for 2 hours followed by an additional 15-minute incubation at 25° C. • 8. The test compounds were next prepared in assay buffer: • a. All compounds were diluted to the required concentration with DMSO and added to a 384-well compound plate; • b. All compounds were serially diluted; • 1. Starting with 10 mM concentration of each test compound, all samples were serially diluted in 3-fold dilutions. • 2. 90 nl/well of each compound was transferred from the source plate to a 384-well compound plate using an Echo liquid handler. • 3. 30 μl/well assay buffer was added to the compound plate; • c. The plates were mixed on a plate shaker for 2 mins; • 9. The cell plate, compound plate and pipette tips were placed in the FLIPR screening system and 10 μl of each compound was added to a well of the cell plate. • 10. Plates were read for 160 sec with 1 sec intervals to obtain the data in agonist mode, then kept at 25° C. in the dark for 30 min. • 11.

In series [5] the target is human muscarinic receptor M3 (Homo sapiens, UniProt P20309). The experiment in a line: cell-based. On the procedure: as §1

As usually defined, the half-life is the time needed for the level to fall by half in the phase considered. The term EC50 denotes the concentration at which the effect is half-maximal.

CYP3A4, sequence (P08684 whole entry): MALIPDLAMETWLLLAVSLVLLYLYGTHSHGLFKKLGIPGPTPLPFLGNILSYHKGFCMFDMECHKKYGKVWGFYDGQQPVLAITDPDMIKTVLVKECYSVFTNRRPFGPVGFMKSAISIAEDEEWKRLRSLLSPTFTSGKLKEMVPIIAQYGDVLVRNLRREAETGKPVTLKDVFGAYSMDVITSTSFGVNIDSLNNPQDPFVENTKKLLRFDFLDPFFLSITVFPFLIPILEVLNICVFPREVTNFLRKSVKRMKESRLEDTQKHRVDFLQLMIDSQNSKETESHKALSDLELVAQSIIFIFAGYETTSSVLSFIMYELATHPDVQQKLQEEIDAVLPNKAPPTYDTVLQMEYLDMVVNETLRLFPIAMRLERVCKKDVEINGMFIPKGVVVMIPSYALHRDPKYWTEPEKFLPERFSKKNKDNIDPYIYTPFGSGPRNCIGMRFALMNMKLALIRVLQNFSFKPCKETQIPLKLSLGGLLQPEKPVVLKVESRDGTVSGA
CYP3A5, sequence (P20815 whole entry): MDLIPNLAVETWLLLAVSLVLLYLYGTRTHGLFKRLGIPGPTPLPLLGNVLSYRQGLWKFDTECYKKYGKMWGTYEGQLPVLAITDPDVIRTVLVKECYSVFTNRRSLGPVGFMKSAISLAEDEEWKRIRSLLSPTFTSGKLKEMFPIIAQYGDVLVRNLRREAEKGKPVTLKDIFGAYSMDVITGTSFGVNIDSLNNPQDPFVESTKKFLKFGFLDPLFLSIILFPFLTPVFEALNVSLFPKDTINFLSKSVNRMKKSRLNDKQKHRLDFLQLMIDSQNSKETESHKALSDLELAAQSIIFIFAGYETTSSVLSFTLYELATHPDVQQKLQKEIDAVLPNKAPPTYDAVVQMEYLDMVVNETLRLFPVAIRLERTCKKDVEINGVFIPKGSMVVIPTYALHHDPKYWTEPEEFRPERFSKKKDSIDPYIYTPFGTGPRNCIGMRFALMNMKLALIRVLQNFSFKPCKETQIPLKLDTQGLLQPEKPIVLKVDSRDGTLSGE
M4 (h) (antagonist radioligand), sequence (P08173 whole entry): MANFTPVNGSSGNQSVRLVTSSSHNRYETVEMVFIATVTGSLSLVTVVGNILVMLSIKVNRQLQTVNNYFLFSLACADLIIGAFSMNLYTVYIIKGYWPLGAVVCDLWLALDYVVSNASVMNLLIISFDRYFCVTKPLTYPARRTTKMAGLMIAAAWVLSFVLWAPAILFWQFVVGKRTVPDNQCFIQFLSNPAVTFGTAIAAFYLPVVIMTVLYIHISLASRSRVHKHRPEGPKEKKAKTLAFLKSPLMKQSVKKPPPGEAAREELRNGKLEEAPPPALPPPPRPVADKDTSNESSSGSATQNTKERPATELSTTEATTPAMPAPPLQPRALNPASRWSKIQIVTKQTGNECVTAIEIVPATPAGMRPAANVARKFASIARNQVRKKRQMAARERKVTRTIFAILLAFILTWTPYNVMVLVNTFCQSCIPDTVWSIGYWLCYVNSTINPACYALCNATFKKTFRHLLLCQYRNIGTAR
D2S (h) (agonist radioligand), sequence (P14416 1-414 isoform P14416-2): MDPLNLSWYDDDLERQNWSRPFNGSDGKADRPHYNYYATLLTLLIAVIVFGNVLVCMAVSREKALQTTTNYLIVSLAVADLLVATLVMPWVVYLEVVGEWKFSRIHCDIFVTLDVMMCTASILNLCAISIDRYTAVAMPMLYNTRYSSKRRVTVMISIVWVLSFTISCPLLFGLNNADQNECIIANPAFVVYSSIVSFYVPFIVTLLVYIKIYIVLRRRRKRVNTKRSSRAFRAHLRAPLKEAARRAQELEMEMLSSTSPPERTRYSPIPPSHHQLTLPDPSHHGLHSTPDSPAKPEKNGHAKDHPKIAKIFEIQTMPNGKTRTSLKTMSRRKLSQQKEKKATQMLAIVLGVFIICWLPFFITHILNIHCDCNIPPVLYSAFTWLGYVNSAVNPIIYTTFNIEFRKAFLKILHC
human muscarinic receptor M3, sequence (P20309 whole entry): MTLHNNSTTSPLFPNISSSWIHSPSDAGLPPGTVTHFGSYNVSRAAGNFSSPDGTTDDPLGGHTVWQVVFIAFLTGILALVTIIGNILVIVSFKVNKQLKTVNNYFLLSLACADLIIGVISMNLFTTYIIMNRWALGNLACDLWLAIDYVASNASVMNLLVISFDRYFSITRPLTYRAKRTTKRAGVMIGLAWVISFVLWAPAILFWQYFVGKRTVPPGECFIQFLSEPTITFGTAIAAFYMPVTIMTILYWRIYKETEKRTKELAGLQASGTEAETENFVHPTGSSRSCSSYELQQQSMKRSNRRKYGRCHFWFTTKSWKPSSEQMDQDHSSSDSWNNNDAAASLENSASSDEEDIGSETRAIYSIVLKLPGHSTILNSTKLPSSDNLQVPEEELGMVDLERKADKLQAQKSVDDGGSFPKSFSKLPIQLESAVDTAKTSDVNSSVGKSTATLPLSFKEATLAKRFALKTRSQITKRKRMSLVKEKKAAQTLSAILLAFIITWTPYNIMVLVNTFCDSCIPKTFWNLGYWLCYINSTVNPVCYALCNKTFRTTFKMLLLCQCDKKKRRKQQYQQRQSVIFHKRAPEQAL
T2 sequence (P08173 whole entry): as the sequence (P08173 whole entry) above
human muscarinic receptor M1, sequence (P11229 whole entry): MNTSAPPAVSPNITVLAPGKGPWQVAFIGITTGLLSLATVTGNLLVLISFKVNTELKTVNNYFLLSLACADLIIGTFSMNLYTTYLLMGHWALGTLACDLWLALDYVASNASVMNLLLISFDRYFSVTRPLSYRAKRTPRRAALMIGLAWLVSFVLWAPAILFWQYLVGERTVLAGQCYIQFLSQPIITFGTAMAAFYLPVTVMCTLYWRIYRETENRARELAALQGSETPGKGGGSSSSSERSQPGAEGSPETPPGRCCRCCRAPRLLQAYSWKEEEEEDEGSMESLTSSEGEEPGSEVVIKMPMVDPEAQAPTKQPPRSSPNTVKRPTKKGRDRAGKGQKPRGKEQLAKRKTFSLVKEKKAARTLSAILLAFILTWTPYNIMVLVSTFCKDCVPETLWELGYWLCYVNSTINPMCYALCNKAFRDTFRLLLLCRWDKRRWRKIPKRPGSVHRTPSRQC

Regarding `O[C@@](CCN1CCCCC1)(c1ccccc1)C1CCCCC1` [(R)-THP, (R)-trihexyphenidyl], in series [1], the “signal, D2S (h) (agonist radioligand)” value was found to be 0.23%. Besides, the “signal, M4 (h) (antagonist radioligand)” value in [2] is 98.88%. Besides, on CYP2C8, the CLint is 0.00 µL/min/pmol and the t1/2 result is listed as “∞”. Besides, in series [3] (human whole blood, 37C), the “Remaining Percentages (%) 0 min” value is given as 100.00% and the t1/2 entry is on record as “∞”. At CYP3A4, the “Substrates of CYP3A4” value is “Rac, R and S”. Moreover, the half-life on CYP3A4 (human) was 30.7 min. Also, the “Substrates of CYP3A5” value at CYP3A5 was “Rac, R and S”.
Turning to `C[C@@H](C[N+](C)(C)C)OC(N)=O.[Cl-]` [(S)-BTC, (S)-bethanechol], the EC50 was greater than 10000 nM at human M4 receptor, 195 nM in series [4] and 20.8 nM in [5]. Moreover, in series [3] (human whole blood, 37C), the “Remaining Percentages (%) 0 min” value came to 100.00%. Further, the t1/2 result in series [3] (human, blood) is given as “∞”.
Take `O[C@](CCN1CCCCC1)(c1ccccc1)C1CCCCC1` [(S)-THP, (S)-trihexyphenidyl]: the “signal, D2S (h) (agonist radioligand)” value in series [1] turned out to be 35.79%. For the same molecule, the “signal, M4 (h) (antagonist radioligand)” value in [2] worked out at 97.82%. On CYP2C8, the CLint came to 0.00 µL/min/pmol and the t1/2 result was “∞”. In addition, the “Substrates of CYP3A4” value at CYP3A4 is “Rac, R and S”. For the same molecule, the “Substrates of CYP3A5” value on CYP3A5 is “Rac, R and S”. The half-life at CYP3A5 (human) was found to be 48.7 min.
